# Target: T1, CYP4A (Homo sapiens, UniProt Q02928)
# T1 construct: purchased; host or cells: bacterial membranes ('bactosome')
# T1 sequence (Q02928 5-519): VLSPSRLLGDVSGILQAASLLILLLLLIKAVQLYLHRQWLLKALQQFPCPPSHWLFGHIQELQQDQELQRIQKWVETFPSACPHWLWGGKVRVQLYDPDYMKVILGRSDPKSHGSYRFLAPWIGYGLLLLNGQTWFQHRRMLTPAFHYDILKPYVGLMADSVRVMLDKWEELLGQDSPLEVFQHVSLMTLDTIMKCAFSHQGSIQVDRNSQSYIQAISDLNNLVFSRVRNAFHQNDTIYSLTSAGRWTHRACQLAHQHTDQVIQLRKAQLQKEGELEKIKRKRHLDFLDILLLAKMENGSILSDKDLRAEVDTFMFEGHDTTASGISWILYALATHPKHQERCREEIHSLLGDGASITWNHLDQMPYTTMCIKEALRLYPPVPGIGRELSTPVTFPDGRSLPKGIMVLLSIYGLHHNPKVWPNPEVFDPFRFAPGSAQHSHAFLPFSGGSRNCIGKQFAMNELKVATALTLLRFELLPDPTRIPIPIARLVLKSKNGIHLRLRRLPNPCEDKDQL
# Assay: CYP4A enzyme assay (luminescence, Luciferin-ME)
# Type: biochemical
# Conditions: Compound concentration 5 μM; 70%-90%; read-out: % Inhibition 70%-90%
# Experimental: The CYP4A inhibitory activity of the above compounds of the examples was measured. The reagents used in the experiment were commercially available, and were prepared and used when necessary. The device used for measuring activity was SpectraMax of MOLECULAR DEVICES.
# CYP4A bactosome and the compounds to be evaluated (5 μM) were each diluted in assay buffer (100 mM KPO4, 0.1% BSA, 1 mM DTT) and mixed in a 384 well plate (white opaque polystyrene nontreated flat-bottom well), and reaction was carried out at room temperature for 15 minutes. To induce CYP4A reaction, 5 mM Luciferin-ME, NADPH Regeneration system (10× sol. A, 20× sol. B in assay buffer, Cat. Number: V865B, Promega) were sequentially added and mixed, and the reaction was carried out at room temperature for 30 minutes. Then, Luciferin Detection reagent was added thereto and reacted at room temperature for 15 minutes to stop the CYP4A reaction and induce a luminescence reaction. Finally, after measuring the luminescence value using a microplate reader, the inhibition of CYP4A activity by the compounds was evaluated by comparing the luminescence value from each well.
row,inhibition at 5 µM,SMILES
1,70 to 90%,"O=C(C1CCN(S(=O)(=O)c2ccc(Br)cc2)C1)N1CCN(c2ccnc3cc(F)ccc23)CC1 (stereo not shown) [Example 16, (1-((4-bromophenyl)sulfonyl)pyrrolidin-3-yl)(4-(7-fluoroquinolin-4-yl)piperazin-1-yl)methanone]"
2,70 to 90%,"O=C(C1CCN(S(=O)(=O)c2ccc(Cl)nc2)C1)N1CCN(c2ccnc3ccccc23)CC1 (stereo not shown) [Example 24, (1-((6-chloropyridin-3-yl)sulfonyl)pyrrolidin-3-yl)(4-(quinolin-4-yl)piperazin-1-yl)methanone]"

# Same assay, conditions: Compound concentration 5 μM; Greater than 90%; read-out: % Inhibition Greater than 90%
row,SMILES,inhibition at 5 µM
1,"Cn1ccnc1S(=O)(=O)N1CCC(C(=O)N2CCN(c3ccnc4cc(F)ccc34)CC2)C1 (stereo not shown) [Example 5, (4-(7-fluoroquinolin-4-yl)piperazin-1-yl)(1-((1-methyl-1H-imidazol-2-yl)sulfonyl)pyrrolidin-3-yl)methanone]",> 90%
2,"Cn1ccnc1S(=O)(=O)N1CC[C@@H](C(=O)N2CCN(c3ccnc4cc(F)ccc34)CC2)C1 [Example 6, (R)-(4-(7-fluoroquinolin-4-yl)piperazin-1-yl)(1-((1-methyl-1H-imidazol-2-yl)sulfonyl)pyrrolidin-3-yl)methanone]",> 90%
3,"Cn1ccnc1S(=O)(=O)N1CC[C@H](C(=O)N2CCN(c3ccnc4cc(F)ccc34)CC2)C1 [Example 7, (S)-(4-(7-fluoroquinolin-4-yl)piperazin-1-yl)(1-((1-methyl-1H-imidazol-2-yl)sulfonyl)pyrrolidin-3-yl)methanone]",> 90%
4,"O=C(C1CCN(S(=O)(=O)c2ncn[nH]2)C1)N1CCN(c2ccnc3cc(F)ccc23)CC1 (stereo not shown) [Example 10, (1-((1H-1,2,4-triazol-5-yl)sulfonyl)pyrrolidin-3-yl)(4-(7-fluoroquinolin-4-yl)piperazin-1-yl)methanone]",> 90%
5,"Cc1n[nH]c(C)c1S(=O)(=O)N1CCC(C(=O)N2CCN(c3ccnc4cc(F)ccc34)CC2)C1 (stereo not shown) [Example 11, (1-((3,5-dimethyl-1H-pyrazol-4-yl)sulfonyl)pyrrolidin-3-yl)(4-(7-fluoroquinolin-4-yl)piperazin-1-yl)methanone]",> 90%
6,"Cc1nn(C)c(C)c1S(=O)(=O)N1CCC(C(=O)N2CCN(c3ccnc4cc(F)ccc34)CC2)C1 (stereo not shown) [Example 12, (4-(7-fluoroquinolin-4-yl)piperazin-1-yl)(1-((1,3,5-trimethyl-1H-pyrazol-4-yl)sulfonyl)pyrrolidin-3-yl)methanone]",> 90%
7,"O=C(C1CCN(S(=O)(=O)c2ncc[nH]2)C1)N1CCN(c2ccnc3cc(F)ccc23)CC1 (stereo not shown) [Example 13, (1-((1H-imidazol-2-yl)sulfonyl)pyrrolidin-3-yl)(4-(7-fluoroquinolin-4-yl)piperazin-1-yl)methanone]",> 90%
8,"Cn1cncc1S(=O)(=O)N1CCC(C(=O)N2CCN(c3ccnc4cc(F)ccc34)CC2)C1 (stereo not shown) [Example 14, (4-(7-fluoroquinolin-4-yl)piperazin-1-yl)(1-((1-methyl-1H-imidazol-5-yl)sulfonyl)pyrrolidin-3-yl)methanone]",> 90%
9,"O=C([C@H]1CCN(S(=O)(=O)c2ncn[nH]2)C1)N1CCN(c2ccnc3cc(F)ccc23)CC1 [Example 19, (S)-(1-((1H-1,2,4-triazol-5-yl)sulfonyl)pyrrolidin-3-yl)(4-(7-fluoroquinolin-4-yl)piperazin-1-yl)methanone]",> 90%
10,"CC(C)(C)c1n[nH]c(S(=O)(=O)N2CCC(C(=O)N3CCN(c4ccnc5cc(F)ccc45)CC3)C2)n1 (stereo not shown) [Example 20, (1-((5-(tert-butyl)-4H-1,2,4-triazol-3-yl)sulfonyl)pyrrolidin-3-yl)(4-(7-fluoroquinolin-4-yl)piperazin-1-yl)methanone]",> 90%
11,"CC(=O)Nc1ccc(S(=O)(=O)N2CCC(C(=O)N3CCN(c4ccnc5ccccc45)CC3)C2)cc1 (stereo not shown) [Example 21, N-(4-((3-(4-(quinolin-4-yl)piperazine-1-carbonyl)pyrrolidin-1-yl)sulfonyl)phenyl)acetamide]",> 90%
12,"CC(=O)Nc1ccc(S(=O)(=O)N2CC[C@@H](C(=O)N3CCN(c4ccnc5ccccc45)CC3)C2)cc1 [Example 22, (R)—N-(4-((3-(4-(quinolin-4-yl)piperazine-1-carbonyl)pyrrolidin-1-yl)sulfonyl)phenyl)acetamide]",> 90%
13,"CC(=O)Nc1ccc(S(=O)(=O)N2CC[C@H](C(=O)N3CCN(c4ccnc5ccccc45)CC3)C2)cc1 [Example 23, (S)—N-(4-((3-(4-(quinolin-4-yl)piperazine-1-carbonyl)pyrrolidin-1-yl)sulfonyl)phenyl)acetamide]",> 90%
14,"O=C(C1CCN(S(=O)(=O)c2ccc(-c3ccccc3)nc2)C1)N1CCN(c2ccnc3ccccc23)CC1 (stereo not shown) [Example 25, (1-((6-phenylpyridin-3-yl)sulfonyl)pyrrolidin-3-yl)(4-(quinolin-4-yl)piperazin-1-yl)methanone]",> 90%
15,"O=C(C1CCN(S(=O)(=O)c2ccc(-c3cccc(O)c3)nc2)C1)N1CCN(c2ccnc3ccccc23)CC1 (stereo not shown) [Example 27, (1-((6-(3-hydroxyphenyl)pyridin-3-yl)sulfonyl)pyrrolidin-3-yl)(4-(quinolin-4-yl)piperazin-1-yl)methanone]",> 90%

# Continued, values first:
row,inhibition at 5 µM,SMILES
1,> 90%,"CC(=O)Nc1ccc(S(=O)(=O)N2CCC(C(=O)N3CCN(c4ccnc5cc(F)ccc45)CC3)C2)cc1 (stereo not shown) [Example 1, N-(4-((3-(4-(7-fluoroquinolin-4-yl)piperazine-1-carbonyl)pyrrolidin-1-yl)sulfonyl)phenyl)acetamide]"
2,> 90%,"CC(=O)Nc1ccc(S(=O)(=O)N2CC[C@@H](C(=O)N3CCN(c4ccnc5cc(F)ccc45)CC3)C2)cc1 [Example 2, (R)—N-(4-((3-(4-(7-fluoroquinolin-4-yl)piperazine-1-carbonyl)pyrrolidin-1-yl)sulfonyl)phenyl)acetamide]"
3,> 90%,"CN(C)c1ccc(S(=O)(=O)N2CCC(C(=O)N3CCN(c4ccnc5cc(F)ccc45)CC3)C2)cc1 (stereo not shown) [Example 3, (1-((4-(dimethylamino)phenyl)sulfonyl)pyrrolidin-3-yl)(4-(7-fluoroquinolin-4-yl)piperazin-1-yl)methanone]"
4,> 90%,"O=C(C1CCN(S(=O)(=O)c2ccc(O)cc2)C1)N1CCN(c2ccnc3cc(F)ccc23)CC1 (stereo not shown) [Example 4, (4-(7-fluoroquinolin-4-yl)piperazin-1-yl)(1-((4-hydroxyphenyl)sulfonyl)pyrrolidin-3-yl)methanone]"
5,> 90%,"O=C(C1CCN(S(=O)(=O)c2ccc([N+](=O)[O-])cc2)C1)N1CCN(c2ccnc3cc(F)ccc23)CC1 (stereo not shown) [Example 8, (4-(7-fluoroquinolin-4-yl)piperazin-1-yl)(1-((4-nitrophenyl)sulfonyl)pyrrolidin-3-yl)methanone]"
6,> 90%,"CC(=O)Nc1cccc(S(=O)(=O)N2CCC(C(=O)N3CCN(c4ccnc5cc(F)ccc45)CC3)C2)c1 (stereo not shown) [Example 9, N-(3-((3-(4-(7-fluoroquinolin-4-yl)piperazine-1-carbonyl)pyrrolidin-1-yl)sulfonyl)phenyl)acetamide]"
7,> 90%,"O=C(C1CCN(S(=O)(=O)c2ccc(-c3cnco3)cc2)C1)N1CCN(c2ccnc3cc(F)ccc23)CC1 (stereo not shown) [Example 15, (4-(7-fluoroquinolin-4-yl)piperazin-1-yl)(1-((4-(oxazol-5-yl)phenyl)sulfonyl)pyrrolidin-3-yl)methanone]"
8,> 90%,"O=C(C1CCN(S(=O)(=O)c2ccc(-c3ccncc3)cc2)C1)N1CCN(c2ccnc3cc(F)ccc23)CC1 (stereo not shown) [Example 17, (4-(7-fluoroquinolin-4-yl)piperazin-1-yl)(1-((4-(pyridin-4-yl)phenyl)sulfonyl)pyrrolidin-3-yl)methanone]"
9,> 90%,"O=C([C@@H]1CCN(S(=O)(=O)c2ccc(-c3ccncc3)cc2)C1)N1CCN(c2ccnc3cc(F)ccc23)CC1 [Example 18, (R)-(4-(7-fluoroquinolin-4-yl)piperazin-1-yl)(1-((4-(pyridin-4-yl)phenyl)sulfonyl)pyrrolidin-3-yl)methanone]"
10,> 90%,"O=C(C1CCN(S(=O)(=O)c2ccc(-c3ccncc3)nc2)C1)N1CCN(c2ccnc3ccccc23)CC1 (stereo not shown) [Example 26, (1-([2,4′-bipyridin]-5-ylsulfonyl)pyrrolidin-3-yl)(4-(quinolin-4-yl)piperazin-1-yl)methanone]"
11,> 90%,"O=C(C1CCN(S(=O)(=O)c2ccc(-c3ccc(O)cc3)nc2)C1)N1CCN(c2ccnc3ccccc23)CC1 (stereo not shown) [Example 28, (1-((6-(4-hydroxyphenyl)pyridin-3-yl)sulfonyl)pyrrolidin-3-yl)(4-(quinolin-4-yl)piperazin-1-yl)methanone]"

# Reference: US12612384B2, “Heterocyclic CYP4A inhibitor compounds and compositions thereof” (MBD CO., LTD., priority 2021, dated 2026)
